Where two headings read alike, the source gives them in different places.
What was measured:
CP-AMPAR = test: Ca2+ imaging of hippocampal brain slices, AMPA+CTZ application, ob/ob mice; assay type: cell-based, mouse
[1] = Ca2+ indicator; cited from earlier work
NMDAR [2] = test: Ca2+ imaging of hippocampal brain slices, NMDA+glycine application (NMDA reaction), HFD-fed mice; assay type: cell-based, mouse; conditions: HFD mice orally administered PER; leptin 100 nM
NMDAR [3] = test: Ca2+ imaging of hippocampal brain slices, NMDA+glycine application, ob/ob mice; conditions: ob/ob mice orally administered PER; leptin 100 nM
AMPAR (CP-AMPAR) = test: Ca2+ imaging of hippocampal brain slices, AMPA+CTZ application (CP-AMPA reaction), HFD-fed mice; assay type: cell-based
Protocol: First, the intracellular calcium concentration ([Ca^2+]i) was directly measured in an acute brain slice of the hippocampus having a perihippocampal region using a mouse obesity model associated with HFD feeding (composition of diet (7) shown in Table 1) for 12 weeks after weaning to track calcium signaling (FIG. 1A: supplementary data moving image 1) in the hippocampus. HFD-fed mice received […] containing 100 μM CTZ (cyclothiazide; […]) applied to EC (entorhinal cortex), CA1 (cornu ammonis 1), CA2, CA3, and DG (dentate gyrus). The F525 normalized before and after application was compared.

NMDA receptor = test: Ca2+-dependent inactivation of the NMDA receptor, Ca2+ imaging of brain slices; assay type: cell-based, mouse; conditions: brain slices of mice fed HFD 2 weeks; 3 μM, 60 min; n=3

## Cc1cn2c(n1)Cc1ccc(Cl)cc1C(c1ccc(N)cc1)=N2 [GYKI 47261]
CP-AMPAR; ob/ob mice slices, 100 μM, p<0.05 (FIG. 10-1A)
  inhibitory effect on CP-AMPAR in EC, CA1, CA2, CA3, DG: significant inhibitory effect

## CC(=O)OCOC(=O)CN(CC(=O)OCOC(C)=O)c1ccc(C)cc1OCCOc1cc(-c2c3cc(Cl)c(=O)cc-3oc3cc(OCOC(C)=O)c(Cl)cc23)ccc1N(CC(=O)OCOC(C)=O)CC(=O)OCOC(C)=O [Fluo-3 AM]
[1]
  Kd: 400 nM

## leptin: hormone that regulates energy expenditure
NMDAR [2]
  function of NMDAR in EC, CA1, CA2, CA3, DG: significantly enhanced
NMDAR [3]
  function of NMDAR in EC, CA1, CA2, CA3, DG: significantly enhanced

## NCCCNCCCCNCCCNC(=O)Cc1cccc2ccccc12 [NASPM, N-[3-[[4-[(3-aminopropyl)amino]butyl]amino]propyl]-1-naphthaleneacetamide]
AMPAR (CP-AMPAR)
  increase in [Ca2+]i via pathological AMPAR: disappeared
CP-AMPAR
  inhibitory effect on CP-AMPAR in EC, CA1, CA2, CA3, DG: significant inhibitory effect

## CC(=O)OCOC(=O)CN(CC(=O)OCOC(C)=O)c1ccccc1OCCOc1ccccc1N(CC(=O)OCOC(C)=O)CC(=O)OCOC(C)=O [BAPTA-AM]
NMDA receptor
  inactivation of the NMDA receptor (reactivity to NMDA 50 μM and glycine 10 μM): released the inactivation of the NMDA receptor
